Laboratory results reported in US20260007601A1, “IONIZABLE CATIONIC LIPID COMPOUND AND COMPOSITION FOR DELIVERING NUCLEIC ACID AND USE THEREOF” (BEIJING YOUCAREKECHUANG PHARMACEUTICAL TECHNOLOGY CO., LTD., priority 2023, published 2026).
Values joined by “and” are separate entries in the source; they are usually repeats but may differ in a detail not shown here. Equal entries are not always repeated.

Experiments:
293T cells = assay: Cell survival rate assay (CCK-8); assay type: cell-based
Method in brief: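 293T cells seeded at 10,000 per well and grown overnight, then exposed for 24 h to LNPs (cationic/neutral/structured/PEG lipids 49:10:39.5:1.5) carrying 1.5 μg Fluc-mRNA, or Lipofectamine 3000. Viability read by CCK-8, 1 h incubation, absorbance at 450 nm.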

[1] = Encapsulation rate, drug loading concentration and total RNA concentration detection (RiboGreen); assay type: physicochemical
female BALB/C mice = assay: Mouse in vivo imaging of Fluc-mRNA LNP formulations; set-up: average radiation intensity (mRNA expression): unit not given here; details: for average radiation intensity (mRNA expression): 10 μg Fluc-mRNA LNP intramuscularly
Method in brief: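 Female BALB/C mice (4–6 weeks, 17–19 g) received LNP carrying 10 μg Fluc-mRNA intramuscularly. Imaging substrate given intraperitoneally at 6 h, 24 h, 48 h and 7 d; after 5 min free movement, average radiance read by IVIS Spectrum imaging.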

[2] = Particle size and polydispersity index (PDI) of nanolipid particles, dynamic light scattering; assay type: physicochemical; details: LNP formulation prepared from the named cationic lipid, 25° C
Protocol: The particle size and polydispersity index (PDI) were determined by dynamic light scattering method using a Malvern laser particle size analyzer. 10 μL of liposome solution was diluted to 1 mL with RNase-free deionized water and added to a sample pool. Each sample was measured three times. The measurement conditions were: 90° scattering angle, 25° C.

[3] = LNP formulation of the named lipid

With `CCCCCCCCCCCOC(=O)CCCCCN(CCCCCCCC(=O)OC(CCCCCCCC)CCCCCCCC)CCN(C)CCO` [YK-201, heptadecan-9-yl-8-(2-((2-hydroxyethyl)(methylamino))ethyl)(6-oxo-6-((undecanyloxy)hexyl)amino)octanoate] the Cell survival rate (293T cells; LNP containing 1.5 μg Fluc-mRNA, 24 hours, CCK-8) was 75.93%, the “cell survival rate higher (cytotoxicity reduced) compared with YK-221” value (293T cells; difference of rates) was 55% and 54.98% and the “cell survival rate higher (toxicity lower) than that of YK-204” value (293T cells; difference of rates) was 30% and 33.36%. For the same compound, the “cell survival rate higher (toxicity lower) than that of YK-225” value (293T cells; difference of rates) was 32.52%, the “cell survival rate higher than that of ALC-0315” value (293T cells; difference of rates) was 25.97% and the “cell survival rate higher than that of HHMA” value (293T cells; difference of rates) was 10.37%. For the same compound, the “cell survival rate higher than that of Lipofectamine 3000” value (293T cells; difference of rates) was 52.88%, the “cell survival rate higher than that of SM-102” value (293T cells; difference of rates) was 7.38% and the “cell survival rate higher than that of YK-203” value (293T cells; difference of rates) was 40.37%. For the same compound, the “cell survival rate higher than that of YK-205” value (293T cells; difference of rates) was 17.01%, the “cell survival rate higher than that of YK-208” value (293T cells; difference of rates) was 29.25% and the “cell survival rate higher than that of YK-210” value (293T cells; difference of rates) was 37.55%. For the same compound, the “cell survival rate higher than that of YK-211” value (293T cells; difference of rates) was 23.63%, the “cell survival rate higher than that of YK-212” value (293T cells; difference of rates) was 40.67% and the “cell survival rate higher than that of YK-213” value (293T cells; difference of rates) was 34.49%. For the same compound, the “cell survival rate higher than that of YK-214” value (293T cells; difference of rates) was 50.35% and 50%, the “cell survival rate higher than that of YK-215” value (293T cells; difference of rates) was 31.34% and the “cell survival rate higher than that of YK-216” value (293T cells; difference of rates) was 30.13%. For the same compound, the “cell survival rate higher than that of YK-217” value (293T cells; difference of rates) was 33.66%, the “cell survival rate higher than that of YK-219” value (293T cells; difference of rates) was 17.32% and the “cell survival rate higher than that of YK-220” value (293T cells; difference of rates) was 16.94%. For the same compound, the “cell survival rate higher than that of YK-222” value (293T cells; difference of rates) was 42.18%, the “cell survival rate higher than that of YK-223” value (293T cells; difference of rates) was 39.29% and the “cell survival rate higher than that of YK-224” value (293T cells; difference of rates) was 52.46%. The “cell survival rate higher than that of YK-226” value (293T cells; difference of rates) was 48.03%, the “cell survival rate higher than that of compound 21” value (293T cells; difference of rates) was 6.91% and the “cell survival rate higher than that of compound 23” value (293T cells; difference of rates) was 5.83%. The “drug loading concentration, times that of ALC-0315” value [1] was 1.55 times, the “drug loading concentration, times that of HHMA” value [1] was 1.32 times and the “drug loading concentration, times that of SM-102” value [1] was 1.58 times. The “drug loading concentration, times that of YK-009” value [1] was 1.50 times, the “drug loading concentration, times that of compound 21” value [1] was 1.78 times and the “drug loading concentration, times that of compound 23” value [1] was 1.95 times. For the same compound, the “total RNA concentration, times that of ALC-0315” value [1] was 1.21 times, the “total RNA concentration, times that of HHMA” value [1] was 1.19 times and the “total RNA concentration, times that of SM-102” value [1] was 1.28 times. The “total RNA concentration, times that of YK-009” value [1] was 1.17 times, the “total RNA concentration, times that of compound 21” value [1] was 1.47 times and 1.5 times and the “total RNA concentration, times that of compound 23” value [1] was 1.39 times. The Drug loading concentration [1, 3] was 40.32 µg/mL, the Encapsulation rate [1, 3] was 89.5% and the “Total RNA concentration” value [1, 3] was 45.07 µg/mL. For the same compound, the “encapsulation rate higher than that of ALC-0315” value ([1]; difference of rates) was 26.70%, the “encapsulation rate higher than that of HHMA” value ([1]; difference of rates) was 29.00% and the “encapsulation rate higher than that of SM-102” value ([1]; difference of rates) was 27.20%. For the same compound, the “encapsulation rate higher than that of YK-009” value ([1]; difference of rates) was 26.50%, the “encapsulation rate higher than that of compound 21” value ([1]; difference of rates) was 31.70% and the “encapsulation rate higher than that of compound 23” value ([1]; difference of rates) was 34.30%. For the same compound, the “average radiation intensity, times that of ALC-0315” value (female BALB/C mice; 6 h) was 3.39 times, the “average radiation intensity, times that of HHMA” value (female BALB/C mice; 6 h) was 4.47 times and the “average radiation intensity, times that of SM-102” value (female BALB/C mice; 6 h) was 4.21 times. The “average radiation intensity, times that of compound 21” value (female BALB/C mice; 6 h) was 4.76 times, the “average radiation intensity, times that of compound 23” value (female BALB/C mice; 6 h) was 4.81 times and the “mRNA expression level, times that of YK-204” value (female BALB/C mice; 6 h) was 81.10 times. For the same compound, the “mRNA expression level, times that of YK-223” value (female BALB/C mice; 6 h) was 276.05 times, the “average radiation intensity (mRNA expression)” value (female BALB/C mice; 6 h) was 2858500 and the “expression level, times that of YK-215” value (female BALB/C mice; 6 hours) was 56.53 times. The “expression level, times that of YK-217” value (female BALB/C mice; 6 hours) was 116.27 times, the “average radiation intensity, times that of ALC-0315” value (female BALB/C mice; 24 h) was 11.11 times and the “average radiation intensity, times that of HHMA” value (female BALB/C mice; 24 h) was 18.47 times. For the same compound, the “average radiation intensity, times that of SM-102” value (female BALB/C mice; 24 h) was 17.49 times, the “average radiation intensity, times that of compound 21” value (female BALB/C mice; 24 h) was 18.76 times and the “average radiation intensity, times that of compound 23” value (female BALB/C mice; 24 h) was 18.27 times. The “mRNA expression level, times that of YK-204” value (female BALB/C mice; 24 h) was 387.32 times, the “mRNA expression level, times that of YK-223” value (female BALB/C mice; 24 h) was 1134.20 times and the “average radiation intensity (mRNA expression)” value (female BALB/C mice; 24 h) was 2025680. The “expression level, times that of YK-215” value (female BALB/C mice; 24 hours) was 297.24 times, the “expression level, times that of YK-217” value (female BALB/C mice; 24 hours) was 764.41 times and the “average radiation intensity, times that of ALC-0315” value (female BALB/C mice; 48 h) was 19.16 times. The “average radiation intensity, times that of HHMA” value (female BALB/C mice; 48 h) was 24.82 times, the “average radiation intensity, times that of SM-102” value (female BALB/C mice; 48 h) was 23.91 times and the “average radiation intensity, times that of compound 21” value (female BALB/C mice; 48 h) was 24.34 times. For the same compound, the “average radiation intensity, times that of compound 23” value (female BALB/C mice; 48 h) was 22.78 times, the “mRNA expression level, times that of YK-204” value (female BALB/C mice; 48 h) was 299.49 times and the “mRNA expression level, times that of YK-223” value (female BALB/C mice; 48 h) was 1077.82 times. For the same compound, the “average radiation intensity (mRNA expression)” value (female BALB/C mice; 48 h) was 730760, the “expression level, times that of YK-215” value (female BALB/C mice; 48 hours) was 200.76 times and the “expression level, times that of YK-217” value (female BALB/C mice; 48 hours) was 713.63 times. For the same compound, the “average radiation intensity, times that of ALC-0315” value (female BALB/C mice; 7 d) was 4.58 times, the “average radiation intensity, times that of HHMA” value (female BALB/C mice; 7 d) was 5.68 times and the “average radiation intensity, times that of SM-102” value (female BALB/C mice; 7 d) was 5.11 times. The “average radiation intensity, times that of compound 21” value (female BALB/C mice; 7 d) was 4.94 times, the “average radiation intensity, times that of compound 23” value (female BALB/C mice; 7 d) was 5.17 times and the “expression level, times that of YK-215” value (female BALB/C mice; 7 d) was 29.56 times. For the same compound, the “expression level, times that of YK-217” value (female BALB/C mice; 7 d) was 57.65 times, the “mRNA expression level, times that of YK-204” value (female BALB/C mice; 7 d) was 39.99 times and the “mRNA expression level, times that of YK-223” value (female BALB/C mice; 7 d) was 68.53 times. For the same compound, the “average radiation intensity (mRNA expression)” value (female BALB/C mice; 7 d) was 30151, the “mRNA expression in mice can reach, times that of YK-204” value (female BALB/C mice; time point not stated) was 380 times and the PDI [2] was 25.5%. The Particle size [2] was 205 nm.
